Tested on: MV-4-11 cells
Assay: Gene expression microarray analysis (Affymetrix PrimeView) and GSEA
Assay type: cell-based, human
Parameters: RFU PODN (11730768_x_at) / Fold change /veh PODN (11730768_x_at) / RFU LINC00158 (11744669_a_at) / Fold change /veh LINC00158 (11744669_a_at) / RFU DUSP10 (11751237_a_at) / Fold change /veh DUSP10 (11751237_a_at) / RFU ID3 (11757404_x_at) / Fold change /veh ID3 (11757404_x_at) / RFU PLEKHG5 (11737974_s_at) / Fold change /veh PLEKHG5 (11737974_s_at) / RFU LRRC4B (11730491_at) / Fold change /veh LRRC4B (11730491_at) / RFU GIMAP4 (11747438_a_at) / Fold change /veh GIMAP4 (11747438_a_at) / RFU KRT8 (11758183_x_at) / Fold change /veh KRT8 (11758183_x_at) / RFU CNN1 (11734310_a_at) / Fold change /veh CNN1 (11734310_a_at) / RFU VPS37D (11726825_at) / Fold change /veh VPS37D (11726825_at) / RFU C10orf10 (11716522_x_at) / Fold change /veh C10orf10 (11716522_x_at) / RFU KIR2DL2 /// KIR2DL4 /// KIR2DL5A /// KIR2DL5B /// KIR2DS1 /// KIR2DS2 /// KIR2DS3 /// KIR2DS4 /// KIR3DL3 /// KIR3DL3 /// KIR3DS1 (11738374_at) / Fold change /veh KIR2DL2 /// KIR2DL4 /// KIR2DL5A /// KIR2DL5B /// KIR2DS1 /// KIR2DS2 /// KIR2DS3 /// KIR2DS4 /// KIR3DL3 /// KIR3DL3 /// KIR3DS1 (11738374_at) / RFU C1QL1 (11718748_at) / Fold change /veh C1QL1 (11718748_at) / RFU TMPRSS4 (11747572_a_at) / Fold change /veh TMPRSS4 (11747572_a_at) / RFU HAMP (11756126_x_at) / Fold change /veh HAMP (11756126_x_at) / RFU RNFT2 (11725882_a_at) / Fold change /veh RNFT2 (11725882_a_at) / RFU NR4A2 (11747474_a_at) / Fold change /veh NR4A2 (11747474_a_at) / RFU ABCC12 (11746883_a_at) / Fold change /veh ABCC12 (11746883_a_at) / RFU TMEM136 (11760407_x_at) / Fold change /veh TMEM136 (11760407_x_at) / RFU CLDN22 /// WWC2 (11732394_at) / Fold change /veh CLDN22 /// WWC2 (11732394_at) / RFU HLA-DPB1 (11760878_x_at) / Fold change /veh HLA-DPB1 (11760878_x_at) / RFU SPINT1 (11716480_a_at) / Fold change /veh SPINT1 (11716480_a_at) / RFU GAP43 (11754022_s_at) / Fold change /veh GAP43 (11754022_s_at) / RFU A4GNT (11735810_at) / Fold change /veh A4GNT (11735810_at) / RFU PRB3 (11715151_x_at) / Fold change /veh PRB3 (11715151_x_at) / RFU TUBB4B (11761932_at) / Fold change /veh TUBB4B (11761932_at) / RFU CAPN14 (11732068_a_at) / Fold change /veh CAPN14 (11732068_a_at) / RFU TMCC2 (11721928_a_at) / Fold change /veh TMCC2 (11721928_a_at) / RFU IRGQ (11745062_a_at) / Fold change /veh IRGQ (11745062_a_at) / RFU FAM174B (11720279_a_at) / Fold change /veh FAM174B (11720279_a_at) / RFU TMPRSS4 (11748680_a_at) / Fold change /veh TMPRSS4 (11748680_a_at) / RFU FAM212B (11763350_a_at) / Fold change /veh FAM212B (11763350_a_at) / RFU PLEKHG5 (11743358_a_at) / Fold change /veh PLEKHG5 (11743358_a_at) / RFU ZSCAN30 (11745921_a_at) / Fold change /veh ZSCAN30 (11745921_a_at) / RFU CMKLR1 (11741424_a_at) / Fold change /veh CMKLR1 (11741424_a_at) / RFU LOC101060620 /// MAPK8IP1 (11723275_at) / Fold change /veh LOC101060620 /// MAPK8IP1 (11723275_at) / RFU SPTSSB (11747773_x_at) / Fold change /veh SPTSSB (11747773_x_at) / RFU PRSS12 (11739890_at) / Fold change /veh PRSS12 (11739890_at) / RFU BIN1 (11741810_x_at) / Fold change /veh BIN1 (11741810_x_at) / RFU WNT11 (11732464_a_at) / Fold change /veh WNT11 (11732464_a_at) / RFU C10orf10 (11716521_a_at) / Fold change /veh C10orf10 (11716521_a_at) / RFU C5orf56 (11738089_at) / Fold change /veh C5orf56 (11738089_at) / RFU CYB561 (11721691_x_at) / Fold change /veh CYB561 (11721691_x_at) / RFU ANKRD19P (11752326_a_at) / Fold change /veh ANKRD19P (11752326_a_at) / RFU OR2T12 /// OR2T33 /// OR2T8 (11738714_s_at) / Fold change /veh OR2T12 /// OR2T33 /// OR2T8 (11738714_s_at) / RFU VCAN (11748164_a_at) / Fold change /veh VCAN (11748164_a_at) / RFU JSRP1 (11732532_at) / Fold change /veh JSRP1 (11732532_at) / RFU KRTAP10-11 (11738290_x_at) / Fold change /veh KRTAP10-11 (11738290_x_at) / RFU MYO3A (11730013_a_at) / Fold change /veh MYO3A (11730013_a_at) / RFU EBF3 (11725865_a_at) / Fold change /veh EBF3 (11725865_a_at) / RFU CAMK2N1 (11719241_x_at) / Fold change /veh CAMK2N1 (11719241_x_at) / RFU C5orf56 (11738088_a_at) / Fold change /veh C5orf56 (11738088_a_at) / RFU OLFML3 (11715873_a_at) / Fold change /veh OLFML3 (11715873_a_at) / RFU LOC100653217 /// NTM (11731650_a_at) / Fold change /veh LOC100653217 /// NTM (11731650_a_at) / RFU MAPK11 (11762145_a_at) / Fold change /veh MAPK11 (11762145_a_at) / RFU FIZ1 (11724087_x_at) / Fold change /veh FIZ1 (11724087_x_at) / RFU OASL (11726364_x_at) / Fold change /veh OASL (11726364_x_at) / RFU SOX15 (11748057_x_at) / Fold change /veh SOX15 (11748057_x_at) / RFU CD79A (11719716_a_at) / Fold change /veh CD79A (11719716_a_at) / RFU HIST1H1D (11736915_at) / Fold change /veh HIST1H1D (11736915_at) / RFU CASKIN2 (11723855_a_at) / Fold change /veh CASKIN2 (11723855_a_at) / RFU LOC730098 (11760151_x_at) / Fold change /veh LOC730098 (11760151_x_at) / RFU OR4N2 (11742367_at) / Fold change /veh OR4N2 (11742367_at) / RFU PRRT2 (11749266_a_at) / Fold change /veh PRRT2 (11749266_a_at) / RFU SNX32 (11753110_a_at) / Fold change /veh SNX32 (11753110_a_at) / RFU CDHR5 (11726645_a_at) / Fold change /veh CDHR5 (11726645_a_at) / RFU RCAN1 (11760418_a_at) / Fold change /veh RCAN1 (11760418_a_at) / RFU FAM167A (11723789_a_at) / Fold change /veh FAM167A (11723789_a_at) / RFU FAM26E (11764081_at) / Fold change /veh FAM26E (11764081_at) / RFU ISYNA1 (11749810_s_at) / Fold change /veh ISYNA1 (11749810_s_at) / RFU ACY1 (11761880_at) / Fold change /veh ACY1 (11761880_at) / RFU 11764098_at / Fold change /veh 11764098_at / RFU SAMD14 (11745864_x_at) / Fold change /veh SAMD14 (11745864_x_at) / RFU NPB (11741838_a_at) / Fold change /veh NPB (11741838_a_at) / RFU TMPRSS6 (11731388_a_at) / Fold change /veh TMPRSS6 (11731388_a_at) / RFU KRTAP10-2 (11738614_at) / Fold change /veh KRTAP10-2 (11738614_at) / RFU ARHGAP8 /// PRR5-ARHGAP8 (11727945_x_at) / Fold change /veh ARHGAP8 /// PRR5-ARHGAP8 (11727945_x_at) / RFU KRTAP5-7 /// NADSYN1 (11734609_at) / Fold change /veh KRTAP5-7 /// NADSYN1 (11734609_at) / RFU RASL12 (11751679_a_at) / Fold change /veh RASL12 (11751679_a_at) / RFU CDKN2B (11736163_a_at) / Fold change /veh CDKN2B (11736163_a_at) / RFU PRF1 (11729649_at) / Fold change /veh PRF1 (11729649_at) / RFU, ZNF638 /// ZNF638-IT1 / Fold change vs veh, ZNF638 /// ZNF638-IT1 / RFU, PANK3 / Fold change vs veh, PANK3 / RFU, SH3YL1 / Fold change vs veh, SH3YL1 / RFU, ZEB2 / Fold change vs veh, ZEB2 / RFU, NRIP1 / Fold change vs veh, NRIP1 / RFU, PTTG1IP / Fold change vs veh, PTTG1IP / RFU, CAPN2 / Fold change vs veh, CAPN2 / RFU, MED14 / Fold change vs veh, MED14 / RFU, SNORA58 / Fold change vs veh, SNORA58 / RFU, C1orf63 / Fold change vs veh, C1orf63 / RFU, LRRFIP1 / Fold change vs veh, LRRFIP1 / RFU, NDUFAF7 / Fold change vs veh, NDUFAF7 / RFU, SLC12A2 / Fold change vs veh, SLC12A2 / RFU, IBTK / Fold change vs veh, IBTK / RFU, ESF1 / Fold change vs veh, ESF1 / Fold change vs veh, TMEM50B / RFU, TAOK1 / Fold change vs veh, TAOK1 / RFU, ACBD3 / Fold change vs veh, ACBD3 / RFU, TMA16 / Fold change vs veh, TMA16 / RFU, RWDD3 / Fold change vs veh, RWDD3 / RFU, BCAT1 / Fold change vs veh, BCAT1 / RFU, EDEM3 / Fold change vs veh, EDEM3 / RFU, TMEM33 / Fold change vs veh, TMEM33 / RFU, WDR75 / Fold change vs veh, WDR75 / RFU, AHCTF1 / Fold change vs veh, AHCTF1 / RFU, TFRC / Fold change vs veh, TFRC / RFU, ZDHHC17 / Fold change vs veh, ZDHHC17 / RFU, NOM1 / Fold change vs veh, NOM1 / RFU, ARL8B / Fold change vs veh, ARL8B / RFU, ZBTB11 / Fold change vs veh, ZBTB11 / RFU, TAMM41 / Fold change vs veh, TAMM41 / RFU, KIAA1704 /// LOC100996395 / Fold change vs veh, KIAA1704 /// LOC100996395 / RFU, ING1 / Fold change vs veh, ING1 / RFU, TRMT61B / Fold change vs veh, TRMT61B / RFU, FUBP3 / Fold change vs veh, FUBP3 / RFU, TP53 / Fold change vs veh, TP53 / RFU, TNKS2 / Fold change vs veh, TNKS2 / RFU, ZFP14 / Fold change vs veh, ZFP14 / RFU, ACTR2 / Fold change vs veh, ACTR2 / RFU, PPP3R1 / Fold change vs veh, PPP3R1 / RFU, PIK3R1 / Fold change vs veh, PIK3R1 / RFU, HNRNPA1 / Fold change vs veh, HNRNPA1 / RFU, RNF170 / Fold change vs veh, RNF170 / RFU, ZNF28 / Fold change vs veh, ZNF28 / RFU, RNGTT / Fold change vs veh, RNGTT / RFU, OGT / Fold change vs veh, OGT / RFU, BRD1 / Fold change vs veh, BRD1 / RFU, MARS / Fold change vs veh, MARS / RFU, ZNF655 / Fold change vs veh, ZNF655 / RFU, FAHD1 / Fold change vs veh, FAHD1 / RFU, BDP1 / Fold change vs veh, BDP1 / RFU, LRRCC1 / Fold change vs veh, LRRCC1 / RFU, ARID1A / Fold change vs veh, ARID1A / RFU, ZNF146 / Fold change vs veh, ZNF146 / RFU, ZNF330 / Fold change vs veh, ZNF330 / RFU, GPN3 / Fold change vs veh, GPN3 / RFU, C9orf123 / Fold change vs veh, C9orf123 / RFU, N4BP2L2 / Fold change vs veh, N4BP2L2 / RFU, ARFIP1 / Fold change vs veh, ARFIP1 / RFU, FAM179B / Fold change vs veh, FAM179B / RFU, BCL10 / Fold change vs veh, BCL10 / RFU, UHRF1BP1L / Fold change vs veh, UHRF1BP1L / RFU, BET1 / Fold change vs veh, BET1 / RFU, CNOT2 / Fold change vs veh, CNOT2 / RFU, ZNF268 / Fold change vs veh, ZNF268 / Fold change vs veh, ZNF507 / RFU, DGCR2 / Fold change vs veh, DGCR2 / RFU, WDSUB1 / Fold change vs veh, WDSUB1 / Fold change vs veh, HSP90B1 /// MIR3652 / RFU, ADSS / Fold change vs veh, ADSS / RFU, GK / Fold change vs veh, GK / RFU, ZNF148 / Fold change vs veh, ZNF148 / RFU, TAF9 / Fold change vs veh, TAF9 / RFU, SLC1A5 / Fold change vs veh, SLC1A5 / RFU, SLMO2 / Fold change vs veh, SLMO2 / RFU, ABCC4 / Fold change vs veh, ABCC4 / RFU, LOC101060439 /// RAP1B / Fold change vs veh, LOC101060439 /// RAP1B / RFU, RFX7 / Fold change vs veh, RFX7 / RFU, GTPBP10 / Fold change vs veh, GTPBP10 / RFU, CNEP1R1 / Fold change vs veh, CNEP1R1 / RFU, BIVM-ERCC5 /// ERCC5 / Fold change vs veh, BIVM-ERCC5 /// ERCC5 / RFU, ILF3 / Fold change vs veh, ILF3 / RFU 11762660_at / Fold change /veh 11762660_at / RFU VCAN (11757783_s_at) / Fold change /veh VCAN (11757783_s_at) / RFU DDX43 (11728927_at) / Fold change /veh DDX43 (11728927_at) / RFU KRT8 (11758188_x_at) / Fold change /veh KRT8 (11758188_x_at) / RFU NKD1 (11759106_at) / Fold change /veh NKD1 (11759106_at) / RFU SRD5A1 (11742802_a_at) / Fold change /veh SRD5A1 (11742802_a_at) / RFU TPSAB1 /// TPSB2 (11721975_s_at) / Fold change /veh TPSAB1 /// TPSB2 (11721975_s_at) / RFU GSTM3 (11746129_a_at) / Fold change /veh GSTM3 (11746129_a_at) / RFU IL23R (11737362_x_at) / Fold change /veh IL23R (11737362_x_at) / RFU TMEM51 (11727254_a_at) / Fold change /veh TMEM51 (11727254_a_at) / RFU PIWIL2 (11732686_x_at) / Fold change /veh PIWIL2 (11732686_x_at) / RFU ORM1 (11744905_x_at) / Fold change /veh ORM1 (11744905_x_at) / RFU CCDC152 (11743942_at) / Fold change /veh CCDC152 (11743942_at) / RFU ECM1 (11717891_a_at) / Fold change /veh ECM1 (11717891_a_at) / RFU IL23R (11748794_a_at) / Fold change /veh IL23R (11748794_a_at) / RFU TNFAIP8L3 (11732012_x_at) / Fold change /veh TNFAIP8L3 (11732012_x_at) / RFU MBOAT4 (11741988_at) / Fold change /veh MBOAT4 (11741988_at) / RFU 11764193_at / Fold change /veh 11764193_at / RFU TMEM53 (11763286_at) / Fold change /veh TMEM53 (11763286_at) / RFU MAGEB2 (11727129_at) / Fold change /veh MAGEB2 (11727129_at) / RFU TMEM200A (11744735_a_at) / Fold change /veh TMEM200A (11744735_a_at) / RFU CCDC152 (11751479_a_at) / Fold change /veh CCDC152 (11751479_a_at) / RFU FAM211A (11726209_a_at) / Fold change /veh FAM211A (11726209_a_at) / RFU RGS16 (11746705_a_at) / Fold change /veh RGS16 (11746705_a_at) / RFU VCAN (11755009_s_at) / Fold change /veh VCAN (11755009_s_at) / RFU RHOB (11743442_s_at) / Fold change /veh RHOB (11743442_s_at) / RFU RGS16 (11720943_a_at) / Fold change /veh RGS16 (11720943_a_at) / RFU RGS16 (11720944_at) / Fold change /veh RGS16 (11720944_at) / RFU, VPS4B / Fold change vs veh, VPS4B / RFU, CREB1 / Fold change vs veh, CREB1 / RFU, DNAJC13 / Fold change vs veh, DNAJC13 / RFU, GNAQ / Fold change vs veh, GNAQ / RFU, CDK5R1 / Fold change vs veh, CDK5R1 / RFU, ZRANB3 / Fold change vs veh, ZRANB3 / RFU, CUL4A / Fold change vs veh, CUL4A / RFU, CCNY / Fold change vs veh, CCNY / RFU, UFL1 / Fold change vs veh, UFL1 / RFU, COG3 / Fold change vs veh, COG3 / RFU, DIAPH2 / Fold change vs veh, DIAPH2 / RFU, SKA2 / Fold change vs veh, SKA2 / RFU, AFF3 / Fold change vs veh, AFF3 / RFU, LMF1 / Fold change vs veh, LMF1 / RFU, IPO11 / Fold change vs veh, IPO11 / RFU, DFFB / Fold change vs veh, DFFB / RFU, FOXP1 / Fold change vs veh, FOXP1 / RFU, CARD8 / Fold change vs veh, CARD8 / RFU, STRN3 / Fold change vs veh, STRN3 / RFU, ADK / Fold change vs veh, ADK / RFU, RASSF2 / Fold change vs veh, RASSF2 / RFU, WIPF1 / Fold change vs veh, WIPF1 / RFU, LARP1B / Fold change vs veh, LARP1B / RFU, RASA1 / Fold change vs veh, RASA1 / RFU, RB1 / Fold change vs veh, RB1 / RFU, PPFIA1 / Fold change vs veh, PPFIA1 / RFU, MAT2A / Fold change vs veh, MAT2A / RFU, CCT5 / Fold change vs veh, CCT5 / RFU, WDR92 / Fold change vs veh, WDR92 / RFU, CUX1 / Fold change vs veh, CUX1 / RFU, TTC7A / Fold change vs veh, TTC7A / RFU, TMEM135 / Fold change vs veh, TMEM135 / RFU, DEPTOR / Fold change vs veh, DEPTOR / RFU, CPM / Fold change vs veh, CPM / RFU, DNAJB6 / Fold change vs veh, DNAJB6 / RFU, CACNA2D3 / Fold change vs veh, CACNA2D3 / RFU, DTX4 / Fold change vs veh, DTX4 / RFU, TFCP2 / Fold change vs veh, TFCP2 / RFU, GMCL1 /// GMCL1P1 / Fold change vs veh, GMCL1 /// GMCL1P1 / RFU, AEBP2 / Fold change vs veh, AEBP2 / RFU, SNHG1 /// SNORD22 /// SNORD25 /// SNORD26 /// SNORD27 /// SNORD28 /// SNORD29 /// SNORD31 / Fold change vs veh, SNHG1 /// SNORD22 /// SNORD25 /// SNORD26 /// SNORD27 /// SNORD28 /// SNORD29 /// SNORD31 / Fold change (Aza/veh), C12orf56 (ProbeSet 11735607_a_at) / Fold change (ACY-1035/veh), C12orf56 (ProbeSet 11735607_a_at) / Fold change (Aza/veh), FGFR1OP (ProbeSet 11751329_s_at) / Fold change (ACY-1035/veh), FGFR1OP (ProbeSet 11751329_s_at) / Fold change (Aza/veh), VPS36 (ProbeSet 11739960_a_at) / Fold change (ACY-1035/veh), VPS36 (ProbeSet 11739960_a_at) / RFU SYPL1 (11715823_x_at) / Fold change /veh SYPL1 (11715823_x_at) / RFU IGFBP7 (11715501_s_at) / Fold change /veh IGFBP7 (11715501_s_at) / RFU REEP3 (11722064_at) / Fold change /veh REEP3 (11722064_at) / RFU IGLL1 (11728026_x_at) / Fold change /veh IGLL1 (11728026_x_at): dose or concentration left out as unconfirmed
Conditions: ProbeSet 11749477_a_at; LIST B

`Nc1ncn([C@@H]2O[C@H](CO)[C@@H](O)[C@H]2O)c(=O)n1` [azacitidine] was tested. Which “Fold change vs veh, EDEM3” value did it give?
The value was 0.89.

Source: paper PMC5218480 (PLoS ONE, 2017)
